The source made the active and inactive calls. The calls are words filed in the database; no cut-off is given here.
How the values were obtained:
[1] = molecular target: Mitotic checkpoint serine/threonine-protein kinase BUB1 beta (Homo sapiens) (UniProt O60566); assay: Induction of BubR1 hyperphosphorylation in human HeLa cells by Western blot analysis; type: cell-based
MDA-MB-231 [2] = assay: Anticlonogenic activity against human MDA-MB-231 cells incubated for 48 hrs followed by replacement with fresh medium measured after 7 to 10 days by gentian violet staining based assay; type: functional, cell-based
MDA-MB-231 [3] = assay: Antiproliferative activity against human MDA-MB-231 cells after 48 hrs by MTT assay; type: functional, cell-based; conditions: MDA-MB-231, 48 h
SK-OV-3 = assay: Antiproliferative activity against human SKOV3 cells after 48 hrs by MTT assay; conditions: SK-OV-3, 48 h
HeLa [4] = assay: Antiproliferative activity against human HeLa cells after 48 hrs by MTT assay; type: functional, cell-based
[5] = Growth inhibition of HOSEC at 1 uM after 48 hrs by MTT assay relative to control; conditions: human, HOSEC cells; read-out: GI
[6] = (§1) Inhibition of pig brain tubulin polymerization measured every 1 min for 20 mins by spectrophotometric method; parameters: species or system Sus scrofa
Sus scrofa = organism: Sus scrofa; assay: as §1
Homo sapiens = organism: Homo sapiens; assay: Disruption of microtubule structure in human SKOV3 cells assessed as decrease in density at 100 nM after 24 hrs by DAPI staining based immunofluorescence assay; type: cell-based
HUVEC = assay: Antiangiogenic activity against HUVEC assessed as disruption of capillary-like tube formation at 50 nM after 12 hrs by inverted microscopic method; type: functional, cell-based; conditions: Homo sapiens
Mus musculus [7] = assay: Anti-vascular activity in Balb/c nude mouse assessed as inhibition of VEGF-induced capillary blood vessel formation using sc injected matrigel plug supplemented with 100 nM test compound mixed with VEGF and measured after 1 week by matrigel plug assay; type: functional, organism-based
Mus musculus [8] = assay: Anti-vascular activity in Balb/c nude mouse assessed as inhibition of VEGF-induced capillary blood vessel formation by measuring reduction in hemoglobin level using sc injected matrigel plug supplemented with 100 nM test compound mixed with VEGF and measured after 1 week by matrigel plug assay; type: functional, organism-based
HeLa [9] = assay: Cell cycle arrest in human HeLa cells assessed as accumulation at G2/M-phase at 25 to 50 nM after 24 hrs by propidium iodide staining based flow cytometry; type: functional
HeLa [10] = assay: Induction of histone-H3 phosphorylation in human HeLa cells by Western blot analysis; type: cell-based
HeLa [11] = assay: Induction of apoptosis in human HeLa cells assessed as early apoptotic cells at 50 nM after 48 hrs by Annexin V-FITC/propidium iodide staining based flow cytometry (reference value: 0.7%); type: functional
HeLa [12] = assay: Induction of apoptosis in human HeLa cells assessed as late apoptotic cells at 50 nM after 48 hrs by Annexin V-FITC/propidium iodide staining based flow cytometry (reference value: 2%); type: functional
HeLa [13] = assay: Induction of apoptosis in human HeLa cells assessed as early apoptotic cells at 100 nM after 48 hrs by Annexin V-FITC/propidium iodide staining based flow cytometry (reference value: 0.7%); type: functional
HeLa [14] = assay: Induction of apoptosis in human HeLa cells assessed as late apoptotic cells at 100 nM after 48 hrs by Annexin V-FITC/propidium iodide staining based flow cytometry (reference value: 2%); type: functional
HeLa [15] = assay: Induction of apoptosis in human HeLa cells assessed as necrotic cells at 100 nM after 48 hrs by Annexin V-FITC/propidium iodide staining based flow cytometry (reference value: 0.9%); type: functional
HeLa [16] = assay: Induction of apoptosis in human HeLa cells assessed as live cells at 200 nM after 48 hrs by Annexin V-FITC/propidium iodide staining based flow cytometry (reference value: 96.5%); type: functional
HeLa [17] = assay: Induction of apoptosis in human HeLa cells assessed as early apoptotic cells at 200 nM after 48 hrs by Annexin V-FITC/propidium iodide staining based flow cytometry (reference value: 0.7%); type: functional
HeLa [18] = assay: Induction of apoptosis in human HeLa cells assessed as late apoptotic cells at 200 nM after 48 hrs by Annexin V-FITC/propidium iodide staining based flow cytometry (reference value: 2%); type: functional
HeLa [19] = assay: Induction of apoptosis in human HeLa cells assessed as necrotic cells at 200 nM after 48 hrs by Annexin V-FITC/propidium iodide staining based flow cytometry (reference value: 0.9%); type: functional
HeLa [20] = assay: Induction of apoptosis in human HeLa cells after 48 hrs by Annexin V-FITC/propidium iodide staining based flow cytometry; type: functional, cell-based
HeLa [21] = assay: Upregulation of Bax protein expression in human HeLa cells after 48 hrs by Western blot analysis; type: functional, cell-based
HeLa [22] = assay: Upregulation of p53 protein expression in human HeLa cells after 48 hrs by Western blot analysis; type: functional, cell-based
HeLa [23] = assay: Upregulation of cleaved PARP1 protein expression in human HeLa cells after 48 hrs by Western blot analysis; type: functional, cell-based
[24] = Acute toxicity in ICR mouse assessed as survival rate at 200 mg/kg, ip measured on day 14 (reference value: 100%); type: organism-based; conditions: in vivo
[25] = Acute toxicity in ICR mouse assessed as survival rate at 100 mg/kg, ip measured on day 14 (reference value: 100%); type: organism-based; conditions: in vivo
[26] = Acute toxicity in ICR mouse assessed as death administered ip measured up to 14 days; type: organism-based; conditions: in vivo
Mus musculus [27] = assay: Acute toxicity in ICR mouse assessed as death at 100 to 200 mg/kg, ip measured after 4 days; type: organism-based; conditions: in vivo, 96 h
Mus musculus [28] = assay: Acute toxicity in ICR mouse assessed as death at 100 to 275 mg/kg, ip measured after 5 to 14 days; type: organism-based; conditions: in vivo
A2780 [29] = assay: Antitumor activity against human A2780 cells xenografted in Balb/c nude mouse assessed as tumor volume inhibition at 8 mg/kg, ip once in every 2 days measured up to 14 days relative to control; type: functional
A2780 [30] = assay: Antitumor activity against human A2780 cells xenografted in Balb/c nude mouse assessed as isolated tumor weight inhibition at 8 mg/kg, ip once in every 2 days measured after 14 days; type: functional, organism-based
A2780 [31] = assay: Antitumor activity against human A2780 cells xenografted in Balb/c nude mouse assessed as tumor weight inhibition at 8 mg/kg, ip once in every 2 days measured up to 14 days; type: functional, organism-based
A2780 [32] = assay: Antitumor activity against human A2780 cells xenografted in Balb/c nude mouse assessed as induction of tumor necrosis at 8 mg/kg, ip once in every 2 days measured after 14 days by H and E staining based assay; type: functional, organism-based
Mus musculus [33] = assay: Toxicity in Balb/c nude mouse xenografted with human A2780 cells assessed as abnormality in liver at 8 mg/kg, ip once in every 2 days measured after 14 days by H and E staining based assay; type: organism-based; conditions: in vivo, 336 h
Mus musculus [34] = assay: Toxicity in Balb/c nude mouse xenografted with human A2780 cells assessed as abnormality in kidney at 8 mg/kg, ip once in every 2 days measured after 14 days by H and E staining based assay; type: organism-based; conditions: in vivo, 336 h
Mus musculus [35] = assay: Toxicity in Balb/c nude mouse xenografted with human A2780 cells assessed as abnormality in spleen at 8 mg/kg, ip once in every 2 days measured after 14 days by H and E staining based assay; type: organism-based; conditions: in vivo, 336 h
A2780 [36] = assay: cells; conditions: Homo sapiens, A2780, 48 h
Description: Antiproliferative activity against human A2780 cells after 48 hrs by MTT assay

Mitotic checkpoint serine/threonine-protein kinase BUB1 beta (Homo sapiens), sequence (O60566 whole entry): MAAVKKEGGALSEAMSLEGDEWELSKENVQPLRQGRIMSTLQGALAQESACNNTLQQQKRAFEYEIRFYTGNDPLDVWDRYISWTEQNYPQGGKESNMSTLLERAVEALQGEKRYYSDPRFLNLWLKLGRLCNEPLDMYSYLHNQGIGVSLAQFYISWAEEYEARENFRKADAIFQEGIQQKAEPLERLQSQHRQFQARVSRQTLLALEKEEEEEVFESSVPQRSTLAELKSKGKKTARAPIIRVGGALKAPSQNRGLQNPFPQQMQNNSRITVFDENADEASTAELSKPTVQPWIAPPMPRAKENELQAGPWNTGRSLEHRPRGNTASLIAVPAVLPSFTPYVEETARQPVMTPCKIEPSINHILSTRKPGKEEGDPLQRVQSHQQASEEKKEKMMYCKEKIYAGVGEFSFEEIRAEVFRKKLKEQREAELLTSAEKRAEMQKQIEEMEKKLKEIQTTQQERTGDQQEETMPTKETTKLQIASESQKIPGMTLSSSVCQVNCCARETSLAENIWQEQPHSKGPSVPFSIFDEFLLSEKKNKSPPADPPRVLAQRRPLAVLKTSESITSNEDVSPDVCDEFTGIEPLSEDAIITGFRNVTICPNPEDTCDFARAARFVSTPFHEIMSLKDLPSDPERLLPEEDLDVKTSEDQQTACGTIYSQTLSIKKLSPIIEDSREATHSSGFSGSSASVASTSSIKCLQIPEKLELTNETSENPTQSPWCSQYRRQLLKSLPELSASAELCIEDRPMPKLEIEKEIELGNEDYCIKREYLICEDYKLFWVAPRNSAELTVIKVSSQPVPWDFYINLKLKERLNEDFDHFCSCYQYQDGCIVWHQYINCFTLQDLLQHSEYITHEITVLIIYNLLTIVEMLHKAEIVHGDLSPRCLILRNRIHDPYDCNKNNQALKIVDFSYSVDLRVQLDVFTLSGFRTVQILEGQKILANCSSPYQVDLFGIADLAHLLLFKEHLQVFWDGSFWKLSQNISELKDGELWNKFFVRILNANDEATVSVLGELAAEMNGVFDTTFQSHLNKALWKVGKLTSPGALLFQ

COc1ccc([C@H]2[C@H](C)C(=O)N2c2cc(OC)c(OC)c(OC)c2)cc1O
Activity [1]: Dose-dependent effect | Activity (MDA-MB-231 [2]): Dose-dependent effect | IC50 (MDA-MB-231 [3]): 3 nM | IC50 (SK-OV-3): 3 nM | IC50 (HeLa [4]): 1 nM | inhibition at 48 h, 1 µM [5]: < 50% | IC50 [6]: 1700 nM | inhibition (Sus scrofa): Dose-dependent effect | Activity (Homo sapiens): Active | Activity (HUVEC): Active | inhibition (Mus musculus [7]): Active | inhibition (Mus musculus [8]): Active | Activity (HeLa [9]): Active | Activity (HeLa [10]): Dose-dependent effect | Activity (HeLa [11]): 29.3% | Activity (HeLa [12]): 23.4% | Activity (HeLa [13]): 35.2% | Activity (HeLa [14]): 29.9% | Activity (HeLa [15]): 7.5% | Activity (HeLa [16]): 21.6% | Activity (HeLa [17]): 37.5% | Activity (HeLa [18]): 33.8% | Activity (HeLa [19]): 7.2% | Activity (HeLa [20]): Dose-dependent effect | Activity (HeLa [21]): Dose-dependent effect | Activity (HeLa [22]): Dose-dependent effect | Activity (HeLa [23]): Dose-dependent effect | survival at 14 day [24]: 30% | survival at 14 day [25]: 90% | LD50 at 336 h [26]: 136 mg/kg | Activity (Mus musculus [27]): Non-Toxic | Activity (Mus musculus [28]): Non-Toxic | inhibition in vivo at 8 mg/kg (A2780 [29]): 76.3% | inhibition (A2780 [30]): Active | inhibition (A2780 [31]): Active | Activity (A2780 [32]): Active | Activity (Mus musculus [33]): Non-Toxic | Activity (Mus musculus [34]): Non-Toxic | Activity (Mus musculus [35]): Non-Toxic | IC50 (A2780 [36]): 2 nM

From ChEMBL document CHEMBL4251633, “Design, synthesis, biological evaluation and cocrystal structures with tubulin of chiral β-lactam bridged combretastatin A-4 analogues as potent antitumor agents” (Eur J Med Chem, 2018)
